Reference: patent publication US4041076A, “Immunoassay for pharmacologically active phenethylamines” (Hoffmann-La Roche Inc., priority 1976, dated 1977)

Columns and labels:
[1] = cross-reactivity expressed as relative reactivity; Braitin and Sunshine 1973; cited from earlier work
[2] = tested on: amphetamine antibody (pooled antisera); assay: Radioimmunoassay for amphetamine (displacement of 125I-labeled amphetamine analog from antibody); assay type: binding, goats; conditions: for Relative Reactivity, Radioimmunoassay: cross-reactivity expressed as relative reactivity; for Cross-reactivity: concentration of amphetamine equivalent in the assay to 10 μg/ml. of the test drug: pooled antisera selected for low cross-reactivity
[3] = cross-reactivity expressed as relative reactivity; Braitin and Sunshine 1973; cited from earlier work; remark: listed apart in the source

SMILES	Relative Reactivity, FRAT [1]	Relative Reactivity, Radioimmunoassay [2]	Cross-reactivity: concentration of amphetamine equivalent in the assay to 10 μg/ml. of the test drug ([2]; test drug at 10 μg/ml)	Relative Reactivity, EMIT [3]	Amphetamine equivalent when tested with 10 μg/ml. of test drug, individual sera ([2]; individual sera (not the selected pool), test drug at 10 μg/ml)
CN[C@@H](C)[C@H](O)c1ccccc1 [Ephedrine (1-form), Ephedrine]	0.15	0.0003	0.003 µg/mL	0.2	
CC(CCc1ccccc1)NC(C)C(O)c1ccc(O)cc1 (centres unmarked) [Nylidrin]	0.1				
CNC(C)(C)Cc1ccccc1 [Mephentermine]				0.6	
CC1NCCOC1c1ccccc1 (centres unmarked) [Phenmetrazine]			0.06 µg/mL		
CC(C)(N)Cc1ccccc1 [Phentermine]	1.0	0.07	0.7 µg/mL		2 to 5 µg/mL
NCCc1ccc(O)cc1 [Tyramine]			0.17 µg/mL		
CC(C)NCC(O)c1ccc(O)c(O)c1 (centres unmarked) [Isoproterenol]			0 µg/mL		
CC(COc1ccccc1)NC(C)C(O)c1ccc(O)cc1 (centres unmarked) [Isoxsuprine]	0.05	0		0.2	
COc1ccc2c(c1)C13CCCCC1C(C2)N(C)CC3 (single isomer, unassigned) [Dextromethorphan]			0.003 µg/mL		
CNC(C)CC1CCCCC1 (centres unmarked) [Propylhexedrine]	0.5	0.03	0.3 µg/mL		
NCCc1ccc(O)c(O)c1 [Dopamine]			0.015 µg/mL		
NCC(O)c1ccc(O)c(O)c1 (centres unmarked) [Norepinephrine]			0.003 µg/mL		
CNC(C)CC1CCCC1 (centres unmarked) [Cyclopentamine]	0.2	0.02		0.3	
CC(N)C(O)c1ccccc1 (centres unmarked) [Phenylpropanolamine]			0.17 µg/mL		
